# Results reported in paper PMC7876106 (Scientific Reports, 2021).
# Columns and labels:
# Format in all cases: binding
# [1] = test system: antisense TeloDNA; test: FP assay, full-length TRF2 protein with FAM labeled antisense TeloDNA; settings: FAM labeled oligo
# [2] = test system: antisense TERRA; test: FP assay, full-length TRF2 protein with FAM labeled antisense TERRA; settings: FAM labeled oligo
# [3] = test system: TeloDNA; test: FP assay, FITC labeled TRF2 peptide with TeloDNA; settings: 10 nM FITC peptide
# Protocol: (§1) All the nucleic acids, peptides and chemicals were dissolved in buffer containing 20 mM HEPES pH7.5, 150 mM salt (KCl, NaCl, LiCl) at the stock concentration of 1 mM. For peptide and nucleic acid interactions, 25μL of each nucleic acids with a sequential twofold dilutions starting from 50 μM was added into each well of 96-well plate followed by adding 25μL of 10 nM FITC labeled TRF2 peptide. For compounds and nucleic acid interactions, 20μL of each compounds with a sequential twofold dilutions starting from 50 μM were added into each well of 96-well plate followed by adding 5μL of 20 ng/mL tRNA and 25μL of 10 nM FAM labeled nucleic acids. For inhibition assay, 5μL FITC labeled TRF2 GAR peptide (10 nM final concentration) and 10 μL oligos (5 μM final concentration) were mixed, followed by adding 5μL of each compound with a sequential twofold dilutions starting from 50 μM into each well of 384-well plate. All components were mixed thoroughly, and the plate was incubated at room temperature for 1 h before placing in an Envision Plate Reader for reading at 495/520 nm. All data curves were fitted using Prism 8.0.
# [4] = test system: TERRA; test: FP assay, FITC labeled TRF2 peptide with TERRA; settings: 10 nM FITC peptide
# Protocol: as §1
# [5] = test system: antisense TERRA; test: FP assay, FITC labeled TRF2 peptide with antisense TERRA; settings: 10 nM FITC peptide
# Protocol: as §1
# [6] = test system: antisense TeloDNA; test: FP assay, FITC labeled TRF2 peptide with antisense TeloDNA; settings: 10 nM FITC peptide
# Protocol: as §1
peptide binding to TeloDNA [3],peptide binding to TERRA [4],Substance,full-length TRF2 affinity for antisense TeloDNA [1],full-length TRF2 affinity for antisense TERRA [2],peptide binding to antisense TERRA [5],peptide binding to antisense TeloDNA [6]
–,–,full-length TRF2 protein: purified recombinant full-length TRF2 protein,lacks measurable affinity,lacks measurable affinity,–,–
no detectable binding,no detectable binding,"AAAGAAASASSGAAAAGAHEPGLGGPAEAGAGEAA [Ala mutant, control peptide with each of the 10 arginine residues mutated to alanine]",–,–,Neither TRF2 GAR nor the Ala mutant showed any detectable binding,Neither TRF2 GAR nor the Ala mutant showed any detectable binding
